Results taken from patent publication US20240148425A1, “COSMETIC COMPOSITION INTENDED FOR THE TREATMENT OF SKIN HYPERPIGMENTATION AND TREATMENT METHOD USING SAID COMPOSITION” (priority 2021, published 2024).

What was measured:
[1] = system: actinic lentigines on the back of hands; conditions: cooling cycle of 3 to 5 seconds; biopsies 3 weeks after the treatment; cited from earlier work
skin pigmentation = conditions: brief 5-second cooling by atomizing liquid nitrogen at −196° C., margin 1 to 5 mm beyond the wound; cited from earlier work
[2] = system: IL-1β marker in keratinocytes; assay: IL-1β irritation marker in keratinocytes after cryogenic gas sequences; assay type: cell-based; conditions: +14° C. with 4 successive oscillations vs subzero dose (EC16, −16° C.), same level of keratinocyte viability
Description: Finally, on the other constituent cells of the epidermis (keratinocytes), experiments have shown that oscillations within an above-zero temperature range caused a lesser effect on certain irritation markers compared to the application of a single cryogenic gas within a subzero temperature range while causing an identical reduction in the viability of the keratinocytes (see FIG. 3). […] Likewise, since the irritation is directly related to the mortality induced by keratinocytes, it could have been thought that for an identical reduction in viability, the irritation would be identical.
FIG. 3 is a graph showing the variation over time of the (IL-1β) marker of the irritation for keratinocytes subjected to two sequences making it possible to achieve the same level of viability, a sequence (EC16) located in a subzero temperature range (−16° C.) and the other sequence (EC14) in an above-zero temperature range (+14° C.).
The development of the invention has given rise to numerous experiments relating to the optimization of atomization sequences. These sequences were tested on cell culture models in order to determine, in particular, their incidence on the cell viability of the melanocytes and keratinocytes. The main markers of irritation were also measured.

keratinocytes = assay: viability of keratinocytes by protein assay; assay type: cell-based; conditions: certain temperatures, especially +05° C.; patent attributes it to quiescence bias
Description: Other tests conducted within the scope of the development of the invention have shown that an experiment bias existed in the measurement of the viability of the keratinocytes by protein assay.

Description for melanocytes: By way of example, when the viability of the melanocytes is compared between the application of a dose of atomized cryogenic gas making it possible to reach a target temperature of −10° C. (sequence referenced EC-10) on the epidermis from its normal starting temperature (34° C.) in an environment at room temperature (23° C.), and the application of a dose making it possible to reach a temperature of 0° C.
Therefore, experiments (cell cultures-in vitro) were conducted in the context of the invention to determine the effects of different temperatures (+10, +5, 0, −5, −10, −15 and 16° C.) on the mortality of the melanocytes. […] A control group of cells was tested at +23° C. After 24 h of treatment, the cell mortality was quantified by assaying the expression of the proteins (see FIG. 1).

Structure (SMILES): N#N [liquid nitrogen]
- skin pigmentation in biopsies [1]: reduces skin pigmentation
- pigment change of skin (skin pigmentation): hypopigmentation persists

Structure (SMILES): CC(F)F [cryogenic gas, 1,1-difluoroethane]
- irritant effect (IL-1β marker) [2]: less than that observed with a dose making it possible to achieve subzero temperatures
- viability of the keratinocytes by protein assay (keratinocytes): a reduction in the viability of the keratinocytes
- decrease of viability of the melanocytes relative to the control group (melanocytes): 40%
- reduction of the viability of the melanocytes (melanocytes): about 40%
- mortality rate of melanocytes versus control group (melanocytes; EC+10 sequence (+10° C.), control at +23° C.): very different from that obtained for the control group
- viability of the melanocytes, sequence EC-10 (−10° C.) compared with EC00 (0° C.) (melanocytes; EC-10 vs EC00, start 34° C., room temperature 23° C.): remains the same
